# According to patent US12139458B2, “(2,5-dioxopyrrolidin-1-yl)(phenyl)-acetamide derivatives and their use in the treatment of neurological diseases” (UNIWERSYTET JAGIELLONSKI, priority 2019, dated 2024):
# Key:
# CYP2D6 = molecular target: T1, CYP2D6 (Homo sapiens, UniProt P10635); experiment: CYP2D6 P450-Glo luminescence test; format: in vitro ADME; conditions: 10 μM
# T1 construct: purchased Promega (Madison, WI, USA)
# Description: Effect of compound 6 on cytochrome P-450 3A4 and 2D6 activity. The research was conducted using commercial luminescence tests CYP3A4 P450-Glo™ and CYP2D6 P450-Glo™ from Promega (Madison, WI, USA) based on the methodology described in the literature (Socała, K.; Mogilski, S.; Pieróg, M.; Nieoczym, D.; Abram, M.; Szulczyk, B.; Lubelska, A.; Latacz, G.; Doboszewska, U.; Wlaź, P.; Kamiński, K. ACS Chem. Neurosci. 2018, doi: 10.1021/acschemneuro.8b00476; Latacz, G.; Lubelska, A.; Jastrzȩbska-Wiȩek, M.; Partyka, A.; Sobato, A.; Olejarz, A.; Kucwaj-Brysz, K.; Satata, G.; Bojarski, A. J.; Wesołowska, A.; Kieć-Kononowicz, K.; Handzlik, J. Chem. Biol. Drug. Des. 2017, 90, 1295-1306). The CYP isoforms selected for study are responsible for the metabolism of approximately 40-50% of the drugs available on the market, and their stimulation or inhibition determines the majority of metabolic drug interactions. […] In summary, the results obtained indicate a low probability of potential metabolic interactions caused by 6.
# TRPV1 receptor (VR1) (h) = TRPV1 receptor (VR1) (h) (Homo sapiens, UniProt Q8NER1); experiment: TRPV1 receptor functional study (antagonist effect); format: cell-based; conditions: human recombinant cells (CHO), read-out: % Inhibition of agonist control responses, TRPV1 receptor (antagonist effect)
# Chain of TRPV1 receptor (VR1) (h) (Q8NER1 whole entry): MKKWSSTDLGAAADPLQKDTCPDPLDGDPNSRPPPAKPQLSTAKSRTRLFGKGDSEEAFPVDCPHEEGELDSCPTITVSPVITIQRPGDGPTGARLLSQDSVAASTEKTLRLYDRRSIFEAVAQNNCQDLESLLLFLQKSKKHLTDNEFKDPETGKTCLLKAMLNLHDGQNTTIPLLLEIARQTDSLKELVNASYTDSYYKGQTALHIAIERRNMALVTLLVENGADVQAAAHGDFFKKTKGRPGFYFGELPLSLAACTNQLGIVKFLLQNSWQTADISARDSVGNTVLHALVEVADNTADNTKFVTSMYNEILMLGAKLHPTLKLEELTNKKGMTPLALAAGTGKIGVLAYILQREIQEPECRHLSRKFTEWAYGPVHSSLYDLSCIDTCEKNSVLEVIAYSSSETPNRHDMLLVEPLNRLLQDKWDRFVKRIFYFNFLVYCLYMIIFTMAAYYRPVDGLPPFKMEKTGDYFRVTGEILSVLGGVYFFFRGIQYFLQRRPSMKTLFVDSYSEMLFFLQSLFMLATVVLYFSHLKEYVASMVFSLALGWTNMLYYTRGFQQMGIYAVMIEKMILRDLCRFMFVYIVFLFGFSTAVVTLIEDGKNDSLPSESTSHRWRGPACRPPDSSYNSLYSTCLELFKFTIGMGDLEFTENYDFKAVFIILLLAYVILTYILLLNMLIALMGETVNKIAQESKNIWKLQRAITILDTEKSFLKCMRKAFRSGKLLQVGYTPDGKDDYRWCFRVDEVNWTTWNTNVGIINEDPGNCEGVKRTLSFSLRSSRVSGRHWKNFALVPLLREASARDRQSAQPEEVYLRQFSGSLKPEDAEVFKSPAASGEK
# Excerpt: A unique feature of the compound 6 representing compounds of formula (II) according to the invention is the inhibition of calcium currents by blocking the transient receptor potential vanilloid type 1 (TRPV1). This effect has not been disclosed for known AEDs. TRPV1 receptor antagonism may determine the antinociceptive effect of the compounds disclosed herein. The role of the TRPV1 receptor in conduction of pain stimuli has been well documented in specialist literature (Szallasi, A.; Cortright, D. N.; Blum, C. A.; Eid, S. R. Nat. Rev. Drug. Discov. 2007, 6, 357-372). The compounds according to the invention are characterized by a complex mechanism of action, which is not described for known anticonvulsants. It should be emphasized, however, that further in vitro studies may reveal further molecular targets responsible for the pharmacological action of substances being the subject of current patent claim. The results of binding studies (sodium channel, calcium channel) and functional tests (TRPV1 receptor) for compound 6 are shown in Table 3.
# [1] = system: male Swiss albino mice (CD-1); experiment: Psychomotor seizure test 6 Hz (44 mA); format: in vivo
# Procedure, shortened: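 Male CD-1 mice (groups of 4) given compounds i.p. in 1% Tween 30 min before a 3 s, 6 Hz corneal stimulus at 44 mA after lidocaine. Psychomotor seizure signs (immobility, forelimb clonus, vibrissae twitching, Straub tail) scored over 10 s; ANOVA with Dunnett's test, p<0.05.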
# HepG2 cells = experiment: ATP level, CellTiter-Glo Luminescent Cell Viability Assay; format: cell-based; conditions: 1-100 μM, 3 h exposure
# Description: In vitro hepatotoxicity assessment. The studies were conducted using the hepatoma HepG2 liver cancer cell line, which is used to assess the hepatotoxicity of the substance in vitro. A classic MTS colorimetric assay from Promega (Madison, WI, USA) was used to investigate the effect of 6 on HepG2 cell viability and proliferation. The compound was tested at four concentrations in the range (0.1-100 μM). Doxorubicin at a concentration of 1 μM was used as a reference cytostatic. In addition, the reference mitochondrial toxin carbonyl cyanide m-chlorophenylhydrazone (CCCP) at a concentration of 10 μM was also used (FIG. 10). […] In addition, cell viability was reduced to just 84% of the control, indicating a trace toxic effect of this compound on HepG2 cell lines. […]
# CellTiter-Glo Luminescent Cell Viability Assay from Promega (Madison, WI, USA) was used to study ATP levels in HepG2 cells. Prior to testing, the cells were plated into white, 96-well transparent bottom culture plates from Corning (Tewksbury, MA, USA), adapted for luminescence measurement at a concentration of 1.5×10^4 cells per well. […] Luminescence measurement was carried out with an EnSpire PerkinElmer (Waltham, MA, USA) reader after adding CellTiter-Glo Luminescent Cell Viability Assay in an amount of 100 μl to the culture. Statistical significance was calculated by one-way ANOVA and Bonferroni analysis using GraphPad Prism 5. […]
# T1 sequence (P10635 whole entry): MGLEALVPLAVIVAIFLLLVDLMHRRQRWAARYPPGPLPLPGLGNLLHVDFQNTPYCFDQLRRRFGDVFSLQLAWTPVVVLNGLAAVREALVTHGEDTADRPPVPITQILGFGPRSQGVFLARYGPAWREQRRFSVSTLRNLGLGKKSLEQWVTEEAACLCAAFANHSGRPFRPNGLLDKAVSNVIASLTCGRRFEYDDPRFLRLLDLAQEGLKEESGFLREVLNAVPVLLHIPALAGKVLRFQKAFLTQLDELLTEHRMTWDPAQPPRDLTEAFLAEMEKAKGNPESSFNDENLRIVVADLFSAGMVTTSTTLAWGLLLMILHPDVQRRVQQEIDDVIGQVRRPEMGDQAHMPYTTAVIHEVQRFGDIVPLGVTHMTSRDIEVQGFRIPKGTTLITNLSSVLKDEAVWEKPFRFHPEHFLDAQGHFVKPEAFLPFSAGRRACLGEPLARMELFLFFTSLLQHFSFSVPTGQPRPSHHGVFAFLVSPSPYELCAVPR
smiles,measurement,setting,value
"O=C(C(c1ccccc1)N1C(=O)CCC1=O)N1CCN(c2cccc(C(F)(F)F)c2)CC1 (racemic) [Compound 6, 1-(2-Oxo-1-phenyl-2-(4-(3-(trifluoromethyl)phenyl)piperazin-1-yl)ethyl)pyrrolidine-2,5-dione]",effect on CYP2D6 activity,CYP2D6,very weak stimulating effect
same,inhibition at 100 µM,TRPV1 receptor (VR1) (h),71.7%
same,ED50,"[1]; Mus musculus, ip, 0.5 h, mice",73.2 mg/kg
same,6 Hz (44 mA): number of mice protected/number of mice tested,"[1]; screening, 100 mg/kg i.p., 0.5 h, mice",4/4
same,mice protected in the 6 Hz (44 mA) test,"[1]; screening, 100 mg/kg, time point 0.5 h",100%
same,effect on ATP levels in HepG2 cells,HepG2 cells,no statistically significant effect
